Series [1] in a line: Half-life in human liver microsomes (HLM). The format is in vitro ADME. The following applies: human, human liver microsomes (HLM, HL101), pH 7.4; 1 μM compound, 0.78 mg/mL HLM, 37° C., NADPH. As to the method: Test compounds (1 μM) were incubated with 3.3 mM MgCl2 and 0.78 mg/mL HLM (HL101) in 100 mM potassium phosphate buffer (pH 7.4) at 37° C. on the 96-deep well plate. The reaction mixture was split into two groups, a non-P450 and a P450 group. NADPH was only added to the reaction mixture of the P450 group. An aliquot of samples of P450 group was collected at 0, 10, 30, and 60 min time point, where 0 min time point indicated the time when NADPH was added into the reaction mixture of P450 group. An aliquot of samples of non-P450 group was collected at −10 and 65 min time point. Collected aliquots were extracted with acetonitrile solution containing an internal standard. The precipitated protein was spun down in centrifuge (2000 rpm, 15 min). The compound concentration in supernatant was measured by LC/MS/MS system.
The half-life value was obtained by plotting the natural logarithm of the peak area ratio of compounds/internal standard versus time. The slope of the line of best fit through the points yields the rate of metabolism (k). This was converted to a half-life value using following equations:
Exemplary compounds of the invention were tested (1 μM), and were incubated with 3.3 mM MgCl2 and 0.78 mg/mL HLM (HL101) in 100 mM potassium phosphate buffer (pH 7.4) at 37° C. on the 96-deep well plate. The reaction mixture was split into two groups, a non-P450 and a P450 group. NADPH was only added to the reaction mixture of the P450 group. An aliquot of samples of the P450 group was collected at 0, 10, 30, and 60 minute time points, where the 0 minute time point indicated the time when NADPH was added into the reaction mixture of the P450 group. An aliquot of samples of the non-P450 group was collected at −10 and 65 minute time points. Collected aliquots were extracted with an acetonitrile solution containing an internal standard. The precipitated protein was spun down in a centrifuge (2000 rpm, 15 rain). The compound concentration in supernatant was measured by LC/MS/MS system. The half-life value (T1/2) was obtained by plotting the natural logarithm of the peak area ratio of compounds/internal standard versus time. The slope of the line of best fit through the points yields the rate of metabolism (k). This was converted to a half-life value using following equations: Half-life=ln 2/k.
(In general: Microsomes from liver hold many membrane-bound enzymes, among them those of drug oxidation.)

The target of another series is VR1 (Homo sapiens, UniProt Q8NER1). Briefly: Calcium uptake assay, low pH (proton) stimulus. Also noted: expressed in transfected cells; host or cells: T-REx HEK 293 (Invitrogen), pcDNA5/TO vector. The following applies: HEK293; 0.3 μM compound; low pH agonist; HEK 293 cells expressing hVR1; read-out: Low pH % Inhib. @ 0.3 μM. The class given is cell-based.
Chain of VR1 (Q8NER1 whole entry): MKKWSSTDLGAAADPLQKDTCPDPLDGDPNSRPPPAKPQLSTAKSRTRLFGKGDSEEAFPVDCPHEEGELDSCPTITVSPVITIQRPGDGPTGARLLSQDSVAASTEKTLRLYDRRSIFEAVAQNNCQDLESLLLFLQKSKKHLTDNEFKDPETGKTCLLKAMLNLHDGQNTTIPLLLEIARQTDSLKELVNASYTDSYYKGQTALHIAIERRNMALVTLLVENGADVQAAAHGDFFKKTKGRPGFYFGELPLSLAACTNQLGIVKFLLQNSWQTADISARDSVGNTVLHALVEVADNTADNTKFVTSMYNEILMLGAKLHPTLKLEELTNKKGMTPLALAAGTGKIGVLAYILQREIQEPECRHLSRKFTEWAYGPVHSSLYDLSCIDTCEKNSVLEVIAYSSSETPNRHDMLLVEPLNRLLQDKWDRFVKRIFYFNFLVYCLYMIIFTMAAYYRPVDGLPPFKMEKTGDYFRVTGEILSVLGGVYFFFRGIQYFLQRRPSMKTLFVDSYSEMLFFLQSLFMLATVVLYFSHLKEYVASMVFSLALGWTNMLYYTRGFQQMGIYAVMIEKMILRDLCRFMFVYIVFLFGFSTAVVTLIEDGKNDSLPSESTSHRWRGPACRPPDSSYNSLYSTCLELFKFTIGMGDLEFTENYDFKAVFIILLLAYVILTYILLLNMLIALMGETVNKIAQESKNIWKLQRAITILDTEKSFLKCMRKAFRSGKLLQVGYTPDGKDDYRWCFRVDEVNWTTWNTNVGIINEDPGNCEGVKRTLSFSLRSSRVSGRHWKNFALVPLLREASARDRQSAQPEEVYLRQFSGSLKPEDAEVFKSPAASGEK

Each structure is given as a SMILES string.

In series [1], `C/C(=C\c1ccc(C(=O)Nc2cccc3cnccc23)cc1)C(F)(F)F` [Compound 89] had a half-life at 1 μM of 0.53 h. The inhibition at 0.3 µM at VR1 stood at 92%.
In the same order, the values of `COc1cc(/C=C/C(F)(F)F)ccc1C(=O)Nc1ccc2c(c1)OCCO2` [Compound 123] are 1.88 h and 19%.
In the same order, the values of `CC(C)(C)C#Cc1ncc(C(=O)Nc2ccc3c(c2)OCCN3)cn1` [Compound 95] are 0.3 h and 102%.
On the same counts, the results for `CC(C)(C)C#Cc1ccc(C(=O)Nc2cccc3cnccc23)cc1` [Compound 31] are 0.4 h and 108%.
Consider `O=C(Nc1ccc2c(c1)OCC(CO)N2)c1ccc(/C=C/C(F)(F)F)cc1F` (stereo not shown) [Compound 144], for which, in series [1], the half-life at 1 μM is 1.18 h. For the same compound, at VR1, the inhibition at 0.3 µM was 105%.
On the same counts, the results for `O=C(Nc1cnc2ccccc2c1)c1ccc(/C=C/C(F)(F)F)cc1` [Compound 36] are 1.71 h and 54%.
On the same counts, the results for `Cc1nc2cc(NC(=O)c3ccc(/C=C/C(F)(F)F)cc3C)ccc2s1` [Compound 188] are 1.34 h and 83%.
On the same counts, the results for `O=C(Nc1ccc2c(c1)OC[C@H](CO)O2)c1ccc(C#CC2CC2)cc1` [Compound 103] are 0.31 h and 92%.
In series [1], `CN1CCCc2ccc(NC(=O)c3ccc(/C=C/C(F)(F)F)cc3)cc21` [Compound 79] had a half-life at 1 μM of 1.33 h. Further, the inhibition at 0.3 µM at VR1 was 98%.
On the same counts, the results for `Cc1cc(C#CC(C)(C)C)ccc1C(=O)Nc1cnc2ccccc2c1` [Compound 181] are 1.02 h and 102%.
On the same counts, the results for `CCOc1cc(C(=O)Nc2cccc3cnccc23)ccc1C#CC(C)(C)C` [Compound 65] are 0.42 h and 109%.
In the same order, the values of `CN1CCCc2ccc(NC(=O)c3ccc(C#CC(C)(C)C)cc3)cc21` [Compound 74] are 1.22 h and 119%.
`O=C(Nc1ccc2c(c1)OCCN2)c1ccc(/C=C/C(F)(F)F)cc1F` [Compound 134] showed a half-life at 1 μM in series [1] of 1.56 h. Besides, on VR1, the inhibition at 0.3 µM stood at 108%.
On the same counts, the results for `Cc1cc(/C=C/C(F)(F)F)ccc1C(=O)Nc1ccc2cc(CO)cnc2c1` [Compound 228] are 1.27 h and 100%.
In the same order, the values of `O=C(Nc1cccc2cnccc12)c1ccc(/C=C/C(F)(F)F)cc1F` [Compound 160] are 0.58 h and 96%.
In the same order, the values of `O=C(Nc1ccc2c(c1)OCCN2)c1ccc(C#CC2CC2)c(OCC2CC2)c1` [Compound 94] are 0.48 h and 85%.
Turning to `Cc1nc2cc(NC(=O)c3ccc(C#CC(F)(F)F)cc3)ccc2s1` [Compound 52], the half-life at 1 μM in series [1] was 0.03 h. For the same compound, the inhibition at 0.3 µM at VR1 stood at 101%.
On the same counts, the results for `COc1cc(/C=C/C(F)(F)F)ccc1C(=O)Nc1ccc2c(c1)OCCN2` [Compound 122] are 1.25 h and 19%.
In the same order, the values of `O=C(Nc1cccc2cnccc12)c1ccc(C#CC2CC2)cc1` [Compound 48] are 0.33 h and 99%.
In the same order, the values of `Cc1cc(/C=C/C(F)(F)F)ccc1C(=O)Nc1ccc2c(c1)OCC(CO)N2` (stereo not shown) [Compound 131] are 1.97 h and 104%.

By half-life is commonly meant the time needed for the level to fall by half in the phase considered. Low readings indicate rapid decline, high ones slow decline.

Source of the values: patent publication US20080300243A1, “Amide Derivatives as Ion-Channel Ligands and Pharmaceutical Compositions and Methods of Using the Same” (priority 2005, published 2008).
